Read-outs that look alike come from different tables or passages of the source.
Test system: E. multilocularis metacestodes
Assay: PGI-assay: drug-induced damage on in vitro cultured metacestodes (Pathogen Box screening cascade and EC50)
Type: cell-based, Echinococcus multilocularis
Conditions: for PGI release, % of the Tx-100 control, 5d / PGI release, % of the Tx-100 control, 12d / cytotoxicity at 10 µM: 10 µM, singlets; for cytotoxicity at 10 µM: Echinococcus multilocularis
[1] = confirmatory screening at 10 µM in triplicates, 5 days of incubation, values as % of Tx-100 control
[2] = confirmatory screening at 10 µM in triplicates, 12 days of incubation, values as % of Tx-100 control
[3] = 120 h, 5 days of incubation, read-out: PGI release, % of the Tx-100 control, 5d
[4] = 288 h, 12 days of incubation, read-out: PGI release, % of the Tx-100 control, 12d

For `CCOc1ccc(-c2nc(CNCCc3ccc(F)cc3)cs2)cc1` [MMV688938], the “PGI release, % of the Tx-100 control, 5d” value (5 days of incubation) was 2.65% and the “PGI release, % of the Tx-100 control, 12d” value (12 days of incubation) was 3.55%.
`Cc1ccc2nc(C)c(-c3ccn(Cc4ccccc4)n3)n2c1` [MMV688939] was tested, and the “PGI release, % of the Tx-100 control, 5d” value (5 days of incubation) was 15.20%, the “PGI release, % of the Tx-100 control, 12d” value (12 days of incubation) was 102.25% and the “PGI release, % of Tx-100 control, average, 5d” value (from here on “PGI release, % … average, 5d”) [1] was 3.21%. For the same compound, the “PGI release, % of Tx-100 control, average, 12d” value (“PGI release, % … average, 12d” for short) [2] was 3.18%.
For `COc1cc(CN2CCC3(C=Cc4ccccc43)CC2)cc2c1OCO2` [MMV688941], the “PGI release, % of the Tx-100 control, 5d” value (5 days of incubation) was -0.50% and the “PGI release, % of the Tx-100 control, 12d” value (12 days of incubation) was -0.49%.
Compound `CC(C)(C)C(O)C(Oc1ccc(-c2ccccc2)cc1)n1cncn1` (stereo not shown) [MMV688942, Bitertanol] has a cytotoxicity at 10 µM [3] of -0.93% and a cytotoxicity at 10 µM [4] of 0.41%.
`CC1COC(Cn2cncn2)(c2ccc(Oc3ccc(Cl)cc3)cc2Cl)O1` (stereo not shown) [MMV688943, Difenoconazol] was tested, and the “PGI release, % of the Tx-100 control, 5d” value (5 days of incubation) was -4.96% and the “PGI release, % of the Tx-100 control, 12d” value (12 days of incubation) was -0.86%.
In the case of `Cc1cc(NC(=O)c2ccc(Oc3ccc(Cl)cc3O)o2)no1` [MMV688955], the “PGI release, % of the Tx-100 control, 5d” value (5 days of incubation) is reported as -0.20% and the “PGI release, % of the Tx-100 control, 12d” value (12 days of incubation) is reported as -3.41%.
`CCc1cc(=O)n(C)c(SC(C)C(=O)Nc2ccc(F)cc2)n1` (stereo not shown) [MMV688980] was tested, and the “PGI release, % of the Tx-100 control, 5d” value (5 days of incubation) was -0.26% and the “PGI release, % of the Tx-100 control, 12d” value (12 days of incubation) was 0.88%.
With `[H]/N=C(/N)N[C@H]1[C@H](O)[C@@H](O)[C@H](O[C@@H]2O[C@@H](C)[C@](O)(C=O)[C@H]2O[C@@H]2O[C@@H](CO)[C@H](O)[C@@H](O)[C@@H]2NC)[C@@H](N/C(N)=N\[H])[C@@H]1O` [MMV688994, Streptomycin, reference compound] the cytotoxicity at 10 µM [3] was -0.55% and the cytotoxicity at 10 µM [4] was 0.19%.
`Cc1ccc(S(=O)(=O)Nc2ccc(CN3CCN(C(=O)c4cccc(C#N)c4)CC3)cc2)cc1` [MMV689028] was tested, and the “PGI release, % of the Tx-100 control, 5d” value (5 days of incubation) was 0.59% and the “PGI release, % of the Tx-100 control, 12d” value (12 days of incubation) was -0.96%.
`COc1ccc(S(=O)(=O)Nc2ccc(CN3CCN(C(=O)c4cccc(C#N)c4)CC3)cc2)cc1` [MMV689029] was tested, and the “PGI release, % of the Tx-100 control, 5d” value (5 days of incubation) was 2.51% and the “PGI release, % of the Tx-100 control, 12d” value (12 days of incubation) was -2.23%.
For `Clc1ccc(CN2CCN(C3=NCCN3)CC2)cc1Cl` [MMV689060], the “PGI release, % of the Tx-100 control, 5d” value (5 days of incubation) was 0.33% and the “PGI release, % of the Tx-100 control, 12d” value (12 days of incubation) was -1.23%.
In the case of `CC(=O)Nc1ccc(-c2noc(CC3CCCN(Cc4cccc(F)c4C)C3)n2)cc1` (stereo not shown) [MMV689061], the “PGI release, % of the Tx-100 control, 5d” value (5 days of incubation) is reported as 2.22% and the “PGI release, % of the Tx-100 control, 12d” value (12 days of incubation) is reported as 1.98%.
`FC(F)(F)c1ccc(N(c2cccnc2)C2CCN(c3ccc(C(F)(F)F)cn3)CC2)cc1` [MMV689243] was tested, and the “PGI release, % of the Tx-100 control, 5d” value (5 days of incubation) was 0.34% and the “PGI release, % of the Tx-100 control, 12d” value (12 days of incubation) was 10.04%.
With `O=C([C@@H](c1ccc(Cl)cc1)c1cccnc1)N1CCN(c2ccc(C(F)(F)F)cc2)CC1` [MMV689244] the “PGI release, % of the Tx-100 control, 5d” value (5 days of incubation) was -0.13% and the “PGI release, % of the Tx-100 control, 12d” value (12 days of incubation) was -0.53%.
In the case of `Nc1ncnc2c1ncn2C[C@@H](O)[C@@H](O)C(=O)O` [MMV689255, Eritadenine], the cytotoxicity at 10 µM [3] is reported as 0.0047% and the cytotoxicity at 10 µM [4] is reported as 0.51%.
For `CC(c1cc(Cl)cc(Cl)c1)N(C)c1ncc2c(N)nc(N)nc2n1` (stereo not shown) [MMV689437], the “PGI release, % of the Tx-100 control, 5d” value (5 days of incubation) was 4.64% and the “PGI release, % of the Tx-100 control, 12d” value (12 days of incubation) was 4.83%.
With `CNc1cc(C)nc(C2CN(C(=O)c3n[nH]c4ccccc34)CCO2)c1` (stereo not shown) [MMV689709] the “PGI release, % of the Tx-100 control, 5d” value (5 days of incubation) was -5.26%, the “PGI release, % of the Tx-100 control, 12d” value (12 days of incubation) was 58.81% and the “PGI release, % … average, 5d” value [1] was -0.32%. The “PGI release, % … average, 12d” value [2] was -0.96%.
In the case of `COc1nc2ccc(Br)cc2cc1[C@@H](c1ccccc1)[C@@](O)(CCN(C)C)c1cccc2ccccc12` [MMV689758, Bedaquiline, reference compound], the cytotoxicity at 10 µM [3] is reported as 2.07% and the cytotoxicity at 10 µM [4] is reported as -3.22%.
`COc1ccc(C2=NN(C3CCCCCC3)C(=O)[C@@H]3CC=CC[C@H]23)cc1OCCCCOc1ccc(-c2nn[nH]n2)cc1` [MMV690027] was tested, and the “PGI release, % of the Tx-100 control, 5d” value (5 days of incubation) was 9.58%, the “PGI release, % of the Tx-100 control, 12d” value (12 days of incubation) was 27.83% and the “PGI release, % … average, 5d” value [1] was 0.20%. The “PGI release, % … average, 12d” value [2] was 0.24%.
In the case of `COc1ccc(C2=NN(C3CCCCCC3)C(=O)C2(C)C)cc1OCCCCOc1ccc(-c2nn[nH]n2)cc1` [MMV690028], the “PGI release, % of the Tx-100 control, 5d” value (5 days of incubation) is reported as 2.30% and the “PGI release, % of the Tx-100 control, 12d” value (12 days of incubation) is reported as 6.47%.
In the case of `COc1ccc(Oc2ccc([C@@H](C)N(C)c3ncc4c(N)nc(N)nc4n3)cc2)cc1` [MMV690102], the “PGI release, % … average, 5d” value (1 µM, triplicates, 5 days of incubation) is reported as -0.29%, the “PGI release, % … average, 12d” value (1 µM, triplicates, 12 days of incubation) is reported as 5.50% and the “activity in the screen at 10 μM (confirmed in triplicates, >20% relative PGI release)” value (10 μM, 5 and 12 days) is reported as “active”. For the same compound, the “PGI release, % of the Tx-100 control, 5d” value (5 days of incubation) was 73.64%, the “PGI release, % of the Tx-100 control, 12d” value (12 days of incubation) was 91.71% and the “PGI release, % … average, 5d” value [1] was 25.36%. For the same compound, the “PGI release, % … average, 12d” value [2] was 31.53%.
In the case of `C[C@H](c1ccc2c(c1)CCCC2)N(C)c1ncc2c(N)nc(N)nc2n1` [MMV690103], the “PGI release, % of the Tx-100 control, 5d” value (5 days of incubation) is reported as -3.58%, the “PGI release, % of the Tx-100 control, 12d” value (12 days of incubation) is reported as 41.60% and the “PGI release, % … average, 5d” value [1] is reported as -0.48%. For the same compound, the “PGI release, % … average, 12d” value [2] was 4.22%.
In the case of `CCc1ccc(C(NCc2nc(N)nc(N(C)C)n2)C(C)C)cc1` (stereo not shown) [MMV1019989], the “PGI release, % of the Tx-100 control, 5d” value (5 days of incubation) is reported as 0.39% and the “PGI release, % of the Tx-100 control, 12d” value (12 days of incubation) is reported as -3.04%.
In the case of `O=C(Nc1nc(-c2ccccn2)cs1)C1CC1c1ccccc1F` (stereo not shown) [MMV1028806], the “PGI release, % of the Tx-100 control, 5d” value (5 days of incubation) is reported as -2.32% and the “PGI release, % of the Tx-100 control, 12d” value (12 days of incubation) is reported as -0.32%.

Reference: PMC6216040, “Repurposing of an old drug: In vitro and in vivo efficacies of buparvaquone against Echinococcus multilocularis” (International Journal for Parasitology: Drugs and Drug …, 2018)
